Data published in patent publication US9751854B2 (Millennium Pharmaceuticals, Inc., priority 2014, dated 2017).
pIC50: −log10 of the molar value.

Target: human VPS34 (Homo sapiens (Human), UniProt Q8NEB9)
Experiment: Human VPS34 enzyme assay (Adapta TR-FRET ADP detection)
Type: biochemical
Parameters: Percent Inhibition: dose or concentration left out as unconfirmed
Conditions: for pIC50: IC50 range class

Sequence of human VPS34 (Q8NEB9 whole entry): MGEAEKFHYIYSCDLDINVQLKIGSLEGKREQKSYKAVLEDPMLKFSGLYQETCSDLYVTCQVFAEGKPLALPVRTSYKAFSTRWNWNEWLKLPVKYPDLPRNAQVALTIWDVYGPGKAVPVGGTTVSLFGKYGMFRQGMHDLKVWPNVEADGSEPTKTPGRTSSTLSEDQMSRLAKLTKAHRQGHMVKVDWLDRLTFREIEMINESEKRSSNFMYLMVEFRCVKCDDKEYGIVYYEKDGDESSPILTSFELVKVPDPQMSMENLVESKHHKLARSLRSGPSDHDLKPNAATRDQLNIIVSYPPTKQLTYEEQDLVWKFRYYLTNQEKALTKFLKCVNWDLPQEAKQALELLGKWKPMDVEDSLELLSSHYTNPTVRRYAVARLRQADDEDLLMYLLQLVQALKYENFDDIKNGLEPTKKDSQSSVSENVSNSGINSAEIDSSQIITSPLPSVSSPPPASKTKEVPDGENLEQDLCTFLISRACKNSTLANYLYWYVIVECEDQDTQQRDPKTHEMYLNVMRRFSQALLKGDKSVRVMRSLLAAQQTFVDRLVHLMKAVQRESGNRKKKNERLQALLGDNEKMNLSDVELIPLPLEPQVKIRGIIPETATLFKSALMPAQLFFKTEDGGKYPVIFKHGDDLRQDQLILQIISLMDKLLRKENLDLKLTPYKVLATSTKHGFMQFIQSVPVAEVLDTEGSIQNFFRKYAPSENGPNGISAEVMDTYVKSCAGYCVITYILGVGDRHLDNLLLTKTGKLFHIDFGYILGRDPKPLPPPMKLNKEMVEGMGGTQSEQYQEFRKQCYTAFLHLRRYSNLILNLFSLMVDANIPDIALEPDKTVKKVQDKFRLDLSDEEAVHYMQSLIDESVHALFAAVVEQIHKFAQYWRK

Row | pIC50 | Percent Inhibition [%] | Structure (SMILES)
1 | > 8.00 |  | COC(=O)Nc1cc(-c2cnc(Cl)c(NS(=O)(=O)c3ccc(F)cc3F)c2C)ccn1 [Compound I-255, methyl (6-chloro-5-{[(2,4-difluorophenyl)sulfonyl]amino}-4-methyl-3,4′-bipyridin-2′-yl)carbamate]
2 | > 8.00 |  | CC(=O)Nc1cc(-c2cnc(C)c(NS(=O)(=O)N3CCOCC3)c2)ccn1 [Compound I-447, N-{6-methyl-5-[(morpholin-4-ylsulfonyl)amino]-3,4′-bipyridin-2′-yl}acetamide]
3 | 7.30 to 8.00 |  | CC(=O)Nc1cc(-c2cnc(N)c(S(=O)(=O)Cc3ccccc3C(F)(F)F)c2)ccn1 [Compound I-50, N-(6-amino-5-{[2-(trifluoromethyl)benzyl]sulfonyl}-3,4′-bipyridin-2′-yl)acetamide]
4 | 7.30 to 8.00 |  | CCOc1cc(-c2ccnc(Nc3ccnc(C)n3)c2)cnc1C [Compound I-479, 5-ethoxy-6-methyl-N-(2-methylpyrimidin-4-yl)-3,4′-bipyridin-2′-amine]
5 | 7.30 to 8.00 |  | CC(=O)Nc1cc(-c2cnc(N)c(S(C)(=O)=O)c2)ccn1 [Compound I-95, N-[6-amino-5-(methylsulfonyl)-3,4′-bipyridin-2′-yl]acetamide]
6 | 7.30 to 8.00 |  | CN(C(=O)c1cc(-c2ccnc(Nc3ccncn3)c2)cnc1N)C12CC(C1)C2 [Compound I-303, 6-amino-N-(bicyclo[1.1.1]pent-1-yl)-N-methyl-2′-(pyrimidin-4-ylamino)-3,4′-bipyridine-5-carboxamide]
7 | < 7.00 |  | Cc1nccc(Nc2cc(-c3cncc(OC4CCc5c(F)cccc54)c3)ccn2)n1 (stereo not drawn) [Compound I-440, 5-[(4-fluoro-2,3-dihydro-1H-inden-1-yl)oxy]-N-(2-methylpyrimidin-4-yl)-3,4′-bipyridin-2′-amine]
8 | 7.30 to 8.00 |  | Cc1nccc(Nc2cc(-c3cnc(C)c(C(=O)O)c3)ccn2)n1 [Compound I-253, 6-methyl-2′-((2-methylpyrimidin-4-yl)amino)-[3,4′-bipyridine]-5-carboxylic acid]
9 | > 8.00 |  | Cc1nccc(Nc2cc(-c3cnc(Cl)c(NS(=O)(=O)N(C)C)c3C)ccn2)n1 [Compound I-381, N′-{6-chloro-4-methyl-2′-[(2-methylpyrimidin-4-yl)amino]-3,4′-bipyridin-5-yl}-N,N-dimethylsulfuric diamide]
10 | > 8.00 |  | CCN(CC)S(=O)(=O)c1cc(-c2ccnc(NC(C)=O)c2)cnc1N [Compound I-124, N-[6-amino-5-(diethylsulfamoyl)-3,4′-bipyridin-2′-yl]acetamide]
11 | 7.30 to 8.00 |  | CC(=O)Nc1cc(-c2cnc3c(c2)S(=O)(=O)N(C24CC(C2)C4)CCO3)ccn1 [Compound I-376, N-{4-[2-(bicyclo[1.1.1]pent-1-yl)-1,1-dioxido-3,4-dihydro-2H-pyrido[2,3-b][1,4,5]oxathiazepin-8-yl]pyridin-2-yl}acetamide]
12 | > 8.00 |  | Cc1c(-c2ccnc(Nc3ccncn3)c2)cnc(Cl)c1NS(=O)(=O)c1ccccc1 [Compound I-309, N-[6-chloro-4-methyl-2′-(pyrimidin-4-ylamino)-3,4′-bipyridin-5-yl]benzenesulfonamide]
13 | 7.30 to 8.00 |  | Cc1nccc(Nc2cc(-c3cnc(C)c(C(=O)N4CC5(COC5)C4)c3)ccn2)n1 [Compound I-415, {6-methyl-2′-[(2-methylpyrimidin-4-yl)amino]-3,4′-bipyridin-5-yl}(2-oxa-6-azaspiro[3,3]hept-6-yl)methanone]
14 | > 8.00 |  | Cc1ncc(-c2ccnc(Nc3ncccn3)c2)cc1NS(=O)(=O)c1ccc(F)cc1F [Compound I-265, 2,4-difluoro-N-[6-methyl-2′-(pyrimidin-2-ylamino)3,4′-bipyridin-5-yl]benzenesulfonamide]
15 | 7.30 to 8.00 |  | Cc1nccc(Nc2cc(-c3cnc(N(C)C)c(C(=O)N(C)C45CC(C4)C5)c3)ccn2)n1 [Compound I-306, N-(bicyclo[1.1.1]pent-1-yl)-6-(dimethylamino)-N-methyl-2′-((2-methylpyrimidin-4-yl)amino)-3,4′-bipyridine-5-carboxamide]
16 | < 7.00 |  | Cc1nccc(Nc2cc(-c3cnc(C)c(OCCN(C)C)c3)ccn2)n1 [Compound I-379, 5-[2-(dimethylamino)ethoxy]-6-methyl-N-(2-methylpyrimidin-4-yl)-3,4′-bipyridin-2′-amine]
17 | > 8.00 |  | CC(=O)Nc1cc(-c2cnc(C)c(NS(=O)(=O)c3cc(C)ccc3C)c2)ccn1 [Compound I-178, N-(5-{[(2,5-dimethylphenyl)sulfonyl]amino}-6-methyl-3,4′-bipyridin-2′-yl)acetamide]
18 | > 8.00 | 93 | Cc1nc(Nc2cc(-c3cnc(Cl)c(NS(=O)(=O)c4ccc(F)cc4F)c3C)ccn2)ccc1C#N [Compound I-238, N-[6-chloro-2′-[(5-cyano-6-methylpyridin-2-yl)amino]-4-methyl-3,4′-bipyridin-5-yl]-2,4-difluorobenzenesulfonamide]
19 | < 7.00 |  | CC(=O)Nc1cc(-c2cncc(C=O)c2)ccn1 [Compound I-184, N-(5-formyl-3,4′-bipyridin-2′-yl)acetamide]
20 | > 8.00 |  | CC(=O)Nc1cc(-c2cnc(C#N)c(NS(=O)(=O)c3ccc(F)cc3F)c2)ccn1 [Compound I-411, N-(6-cyano-5-{[(2,4-difluorophenyl)sulfonyl]amino}-3,4′-bipyridin-2′-yl)acetamide]
21 | 7.30 to 8.00 |  | CC(=O)Nc1cc(-c2cnc(N)c(C(=O)N3CC[C@@H](F)C3)c2)ccn1 [Compound I-157, N-[6-amino-5-{[(3R)-3-fluoropyrrolidin-1-yl]carbonyl}-3,4′-bipyridin-2′-yl)acetamide]
22 | 7.30 to 8.00 |  | CC(=O)Nc1cc(-c2cnc(Cl)c(NS(=O)(=O)c3ccc(C#N)cc3Cl)c2C)ccn1 [Compound I-362, N-(6-chloro-5-{[(2-chloro-4-cyanophenyl)sulfonyl]amino}-4-methyl-3,4′-bipyridin-2′-yl)acetamide]
23 | 7.30 to 8.00 |  | COc1ncc(-c2ccnc(NC(C)=O)c2)cc1NS(=O)(=O)N(C)C [Compound I-220, N-{5-[(dimethylsulfamoyl)amino]-6-methoxy-3,4′-bipyridin-2′-yl}acetamide]
24 | < 7.00 |  | Cc1nccc(Nc2cc(-c3cnc(C)c(NC(=O)Nc4ccccc4)c3)ccn2)n1 [Compound I-439, 1-{6-methyl-2′-[(2-methylpyrimidin-4-yl)amino]-3,4′-bipyridin-5-yl}-3-phenylurea]
25 | > 8.00 |  | COc1cccc(S(=O)(=O)Nc2cc(-c3ccnc(NC(C)=O)c3)cnc2C)c1 [Compound I-123, N-(5-{[(3-methoxyphenyl)sulfonyl]amino}-6-methyl-3,4′-bipyridin-2′-yl}acetamide]
26 | > 8.00 |  | CC(=O)Nc1cc(-c2cnc(C)c(NS(=O)(=O)c3ccc(C)cc3F)c2)ccn1 [Compound I-182, N-(5-{[(2-fluoro-4-methylphenyl)sulfonyl]amino}-6-methyl-3,4′-bipyridin-2′-yl)acetamide]
27 | > 8.00 |  | CC(=O)Nc1cc(-c2cnc(N)c(S(=O)(=O)NC3CCCCC3)c2)ccn1 [Compound I-101, N-[6-amino-5-(cyclohexylsulfamoyl)-3,4′-bipyridin-2′-yl]acetamide]
28 | > 8.00 |  | Cc1ncc(-c2ccnc(Nc3ccc(C#N)cn3)c2)cc1NS(=O)(=O)c1ccc(F)cc1F [Compound I-228, N-{2′-[(5-cyanopyridin-2-yl)amino]-6-methyl-3,4′-bipyridin-5-yl}-2,4-difluorobenzenesulfonamide]

Row | Structure (SMILES) | pIC50 | Percent Inhibition [%]
29 | CC(=O)Nc1cc(-c2cnc(N)c(S(=O)(=O)N(C)C)c2)c(F)cn1 [Compound I-186] | 7.30 to 8.00 | 
